In ChEMBL document CHEMBL1201862, “PubChem BioAssay data set” (2004):
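Compound exposure: 48 hours, 5 concentrations, 96-well plates. GI50: concentration for 50% inhibition of growth.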 Activity calls are given as the source filed them. No stated cut-off is given here; in the data, active = GI50 up to about 1.1 µM and inactive = higher.

Experiments:
Experiment in all cases: NCI tumour cell line growth inhibition, 48 h
SF-268 = test system: SF-268
PC-3 = test system: PC-3
IGROV-1 = test system: IGROV-1
NCI-H226 = test system: NCI-H226
MOLT-4 = test system: MOLT-4
M14 = test system: M14
SNB-19 = test system: SNB-19
HCC 2998 = test system: HCC 2998
SN12C = test system: SN12C
HCT-116 = test system: HCT-116
SK-MEL-28 = test system: SK-MEL-28
COLO 205 = test system: COLO 205
SNB-75 = test system: SNB-75
TK-10 = test system: TK-10
SF-295 = test system: SF-295
A549 = test system: A549
EKVX = test system: EKVX
DU-145 = test system: DU-145

Measured: GI50

Nc1nc(Cl)cc(NCCO)n1
inactive: SF-268 > 100 µM | PC-3 > 100 µM | IGROV-1 > 100 µM | NCI-H226 > 100 µM | MOLT-4 > 100 µM | M14 > 100 µM | SNB-19 > 100 µM | HCC 2998 72.6 µM | SN12C > 100 µM | HCT-116 > 100 µM | SK-MEL-28 > 100 µM | COLO 205 > 100 µM | SNB-75 > 100 µM | TK-10 > 100 µM | SF-295 > 100 µM | A549 > 100 µM | EKVX > 100 µM | DU-145 > 100 µM

O=C1C2=Cc3ccccc3OC2(O)Oc2ccc(O)cc21 (stereo unspecified)
inactive: SF-268 > 100 µM | PC-3 73.3 µM | IGROV-1 56.4 µM | NCI-H226 > 100 µM | MOLT-4 62.5 µM | M14 > 100 µM | HCC 2998 > 100 µM | SN12C > 100 µM | HCT-116 > 100 µM | SK-MEL-28 > 100 µM | COLO 205 40.8 µM | SNB-75 35.9 µM | TK-10 > 100 µM | SF-295 > 100 µM | A549 53.6 µM | EKVX > 100 µM | DU-145 > 100 µM

C[C@H](CCC(=O)O)[C@H]1CC[C@H]2[C@@H]3[C@@H](O)C[C@@H]4C[C@H](O)CC[C@]4(C)[C@H]3C[C@H](O)[C@]12C
inactive: SF-268 > 100 µM | PC-3 > 100 µM | IGROV-1 > 100 µM | NCI-H226 > 100 µM | MOLT-4 > 100 µM | M14 > 100 µM | SNB-19 > 100 µM | HCC 2998 > 100 µM | SN12C > 100 µM | HCT-116 > 100 µM | SK-MEL-28 > 100 µM | COLO 205 > 100 µM | SNB-75 > 100 µM | TK-10 > 100 µM | A549 > 100 µM | EKVX > 100 µM | DU-145 > 100 µM

NNc1[nH]c(=S)[nH]c1C(N)=O
inactive: SF-268 > 100 µM | PC-3 > 100 µM | IGROV-1 > 100 µM | NCI-H226 > 100 µM | MOLT-4 > 100 µM | M14 > 100 µM | HCC 2998 > 100 µM | SN12C > 100 µM | HCT-116 > 100 µM | SK-MEL-28 > 100 µM | COLO 205 > 100 µM | SNB-75 > 100 µM | TK-10 > 100 µM | SF-295 > 100 µM | A549 > 100 µM | EKVX > 100 µM | DU-145 > 100 µM

COC(=O)C1(NC(=O)C(Cc2ccccc2)N(C(=O)OC(C)(C)C)C(=O)OC(C)(C)C)CCCC1 (stereo unspecified)
inactive: SF-268 > 100 µM | PC-3 31 µM | IGROV-1 > 100 µM | NCI-H226 > 100 µM | MOLT-4 31.8 µM | M14 > 100 µM | SNB-19 > 100 µM | HCC 2998 19.9 µM | SN12C > 100 µM | HCT-116 55.7 µM | SK-MEL-28 > 100 µM | COLO 205 > 100 µM | SNB-75 > 100 µM | TK-10 32.7 µM | A549 37.9 µM | EKVX 66.2 µM | DU-145 > 100 µM

c1ccc(-c2c3c(nc4c2CC[C@H]4NC2=NCCN2)[C@@H](NC2=NCCN2)CC3)cc1
inactive: SF-268 63.4 µM | PC-3 98.2 µM | IGROV-1 40 µM | NCI-H226 > 73.1 µM | MOLT-4 56.2 µM | M14 > 100 µM | HCC 2998 27 µM | SN12C > 100 µM | HCT-116 48.5 µM | SK-MEL-28 > 100 µM | COLO 205 > 100 µM | SNB-75 58.1 µM | TK-10 > 100 µM | SF-295 > 100 µM | A549 > 87.9 µM | EKVX > 100 µM | DU-145 > 100 µM

Cc1ccc2nnc(NS(=O)(=O)c3cc(C)c(Cl)cc3S)n2n1
inactive: SF-268 > 100 µM | PC-3 > 100 µM | IGROV-1 > 100 µM | NCI-H226 > 100 µM | MOLT-4 > 100 µM | M14 > 100 µM | SNB-19 > 100 µM | HCC 2998 > 100 µM | SN12C > 100 µM | HCT-116 > 100 µM | SK-MEL-28 > 100 µM | COLO 205 > 100 µM | SNB-75 > 100 µM | TK-10 > 100 µM | A549 > 100 µM | EKVX > 100 µM | DU-145 > 100 µM

Cc1cc(C#N)c(Nc2ccc(F)cc2[N+](=O)[O-])s1
inactive: SF-268 25.5 µM | PC-3 > 100 µM | NCI-H226 > 100 µM | MOLT-4 > 100 µM | M14 71.1 µM | SNB-19 > 100 µM | HCC 2998 > 100 µM | SN12C > 100 µM | HCT-116 > 100 µM | SK-MEL-28 > 100 µM | COLO 205 > 100 µM | SNB-75 21.3 µM | SF-295 30.8 µM | A549 > 100 µM | EKVX > 100 µM | DU-145 > 100 µM
